Measurements reported in PubChem BioAssay AID1963985 (Molecular Pharmacology Branch, DTP, NCI, 2024).

Tested on: 252836-082-R-J2-PDC tumor spheroids, viability
Test: Anticancer human tumor 252836-082-R-J2-PDC patient-derived head and neck squamous cell carcinoma cell line growth inhibition [PI3K]
Settings: spheroids with HUVEC and MSC; for IC50: curve of first compound; for viability, T/C: stronger effect = lower value
Description: Combinatorial screen of targeted agents with the PI3K inhibitors inavolisib, alpelisib, duvelisib, and copanlisib in multi-cell type tumor spheroids
A high-throughput screen of multi-cell type tumor spheroids was designed to identify active combinations of targeted small molecules and PI3K pathway inhibitors. Complex spheroids include a stromal component modeled by human endothelial cells (HUVEC) and fibroblasts modeled by human mesenchymal stem cells (MSCs). The concentration ranges selected for each drug and investigational agent were based upon clinically achievable concentrations if the clinical Cmax of the agent was known.
Compounds. The drugs and investigational agents: inavolisib (NSC800729), alpelisib (NSC765974), duvelisib (NSC772469), copanlisib (NSC816437), ipatasertib (NSC767898), afuresertib (NSC778305), talazoparib (NSC767125), sapanisertib (NSC764658), selumetinib (NSC741078), tovorafenib (DAY101, NSC766906), vemurafenib (NSC761431), ravoxertinib (NSC781343), sotorasib (NSC818433), MRTX1133 (NSC 836407), abemaciclib (NSC 768073), palbociclib (NSC758247), venetoclax (NSC 766270), SY5609 (NSC837396), enzalutamide (NSC755605), and darolutamide (NSC825331), were obtained from the National Cancer Institute (NCI) Developmental Therapeutics Program Chemical Repository. The FDA-approved anticancer drug set is available from the NCI Developmental Therapeutics Program. […] The stock solutions were prepared in dimethyl sulfoxide (DMSO, Sigma-Aldrich, St. Louis, MO, cat. D2650) at 800-fold the tested concentration and stored at -70 degrees C prior to their use. All drugs and investigational agents were tested over a range starting from a high concentration at or near the clinical Cmax and decreasing in half-log increments. If the clinical Cmax for an agent had not been determined, the highest concentration tested was 10 microM.
Cell Culture. All cells were maintained in an incubator at 37 degrees C and 5% CO2 with 95% humidity. The PDC lines were cultured according to standard operating procedures established by the NCI PDMR (https://pdmr.cancer.gov/sops/default.htm). All PDCs were thawed and cultured in Matrigel-coated flasks prepared with a working solution of 1X Ham's F-12 nutrient mix, without supplementation (Invitrogen, Waltham, MA, cat. 11765054), 100 U/mL penicillin-streptomycin (Invitrogen, cat. 15140122), and 2.5% Matrigel (Corning Inc., Corning, NY, cat. 354248) for the first three passages. The 354836-022-R-J1-PDC, 475296-252-R-J1-PDC, and 997726-040-R-J2-PDC lines were cultured in 6A media, which includes advanced DMEM/F-12 (Thermo Fisher Scientific, cat. 12634028), 10 mM HEPES (Thermo Fisher Scientific, cat. 15630080), 1X GlutaMAX supplement (Thermo Fisher Scientific, cat. 35050061), 0.1 mg/mL primocin (InvivoGen, San Diego, CA, cat. ant-pm-2), 10% defined fetal bovine serum, heat inactivated (HyClone Laboratories Inc., Logan, UT, cat. SH30070.03HI), 50% L-WRN conditioned media (ATCC, cat. CRL-3276), 1.25 mM N-Acetyl-L-cysteine (Sigma-Aldrich, cat. A9165), 10 mM nicotinamide (Sigma-Aldrich, cat. N0636), 1X B-27 supplement (Thermo Fisher Scientific, cat. 17504044), 1X N-2 supplement (Thermo Fisher Scientific, cat. 17502048), and 10 microM Y-27632 dihydrochloride (Tocris Bioscience, Bristol, United Kingdom, cat. 1254). The 624824-186-R-J2-PDC line was cultured in 6C/Colon 1B media, which includes all 6A media components plus 50 ng/mL human EGF recombinant protein (Thermo Fisher Scientific, cat. PHG0311). […]

[1] = second compound 0.0316 µM, first compound 0.0316 µM
[2] = second compound 0.0316 µM, first compound 0.1 µM
[3] = second compound 0.1 µM, first compound 0.0316 µM
[4] = second compound 0.1 µM, first compound 0.1 µM
[5] = second compound 0.316 µM, first compound 0.0316 µM
[6] = second compound 0.316 µM, first compound 0.1 µM
[7] = second compound 1 µM, first compound 0.0316 µM
[8] = second compound 1 µM, first compound 0.1 µM
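Further: spheroids exposed to agents for seven days before readout.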
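Wherever viability, T/C is given: percent of vehicle DMSO control viability so 100% = untreated growth.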

`Cn1ncc(Cl)c1-c1cc(C(=O)NC(CN)Cc2cccc(F)c2)sc1Cl` (centres undefined) + CC(Nc1ncnc2nc[nH]c12)c1cc2cccc(Cl)c2c(=O)n1-c1ccccc1 was tested, and the IC50 (second compound 0.0316 µM) was 642 nM, the IC50 (second compound 0.1 µM) was 713 nM and the IC50 (second compound 0.316 µM) was 496 nM. For the same compound, the IC50 (second compound 1 µM) was 623 nM, the IC50 (second compound 3.16 µM) was 538 nM and the IC50 (second compound 10 µM) was 273 nM. For the same compound, the viability, T/C [1] was 90.3%, the viability, T/C [2] was 65% and the viability, T/C (second compound 0.0316 µM, first compound 0.316 µM) was 63.8%. It also gave a viability, T/C (second compound 0.0316 µM, first compound 1 µM) of 44.5%, a viability, T/C (second compound 0.0316 µM, first compound 3.16 µM) of 30% and a viability, T/C (second compound 0.0316 µM, first compound 10 µM) of 12.1%. The viability, T/C [3] was 100%, the viability, T/C [4] was 81% and the viability, T/C (second compound 0.1 µM, first compound 0.316 µM) was 59.7%. For the same compound, the viability, T/C (second compound 0.1 µM, first compound 1 µM) was 43.9%, the viability, T/C (second compound 0.1 µM, first compound 3.16 µM) was 33% and the viability, T/C (second compound 0.1 µM, first compound 10 µM) was 12.2%. The viability, T/C [5] was 80.9%, the viability, T/C [6] was 70.3% and the viability, T/C (second compound 0.316 µM, first compound 0.316 µM) was 56.2%. For the same compound, the viability, T/C (second compound 0.316 µM, first compound 1 µM) was 38.8%, the viability, T/C (second compound 0.316 µM, first compound 3.16 µM) was 28.2% and the viability, T/C (second compound 0.316 µM, first compound 10 µM) was 12%. The viability, T/C [7] was 84%, the viability, T/C [8] was 80.4% and the viability, T/C (second compound 1 µM, first compound 0.316 µM) was 58.3%. For the same compound, the viability, T/C (second compound 1 µM, first compound 1 µM) was 40.7%, the viability, T/C (second compound 1 µM, first compound 3.16 µM) was 29.5% and the viability, T/C (second compound 1 µM, first compound 10 µM) was 13%. It also gave a viability, T/C (second compound 3.16 µM, first compound 0.0316 µM) of 76.5%, a viability, T/C (second compound 3.16 µM, first compound 0.1 µM) of 71.8% and a viability, T/C (second compound 3.16 µM, first compound 0.316 µM) of 53.8%. For the same compound, the viability, T/C (second compound 3.16 µM, first compound 1 µM) was 43.3%, the viability, T/C (second compound 3.16 µM, first compound 3.16 µM) was 27.8% and the viability, T/C (second compound 3.16 µM, first compound 10 µM) was 15.5%. The viability, T/C (second compound 10 µM, first compound 0.0316 µM) was 57%, the viability, T/C (second compound 10 µM, first compound 0.1 µM) was 60.9% and the viability, T/C (second compound 10 µM, first compound 0.316 µM) was 49.3%. It also gave a viability, T/C (second compound 10 µM, first compound 1 µM) of 30.7%, a viability, T/C (second compound 10 µM, first compound 3.16 µM) of 27% and a viability, T/C (second compound 10 µM, first compound 10 µM) of 14.1%.

For `Cn1ncnc1[C@H]1c2n[nH]c(=O)c3cc(F)cc(c23)N[C@@H]1c1ccc(F)cc1` + CC(Nc1ccc2c(c1)OCCn1cc(N3C(=O)OCC3C(F)F)nc1-2)C(N)=O, the IC50 (second compound 0.00316 µM) was over 100 nM, the IC50 (second compound 0.01 µM) was over 100 nM and the IC50 (second compound 0.0316 µM) was over 100 nM. The IC50 (second compound 0.1 µM) was 46.7 nM, the IC50 (second compound 0.316 µM) was 6.75 nM and the IC50 (second compound 1 µM) was under 0.316 nM. For the same compound, the viability, T/C (second compound 0.00316 µM, first compound 0.000316 µM) was 97.7%, the viability, T/C (second compound 0.00316 µM, first compound 0.001 µM) was 86.2% and the viability, T/C (second compound 0.00316 µM, first compound 0.00316 µM) was 78.7%. The viability, T/C (second compound 0.00316 µM, first compound 0.01 µM) was 86.3%, the viability, T/C (second compound 0.00316 µM, first compound 0.0316 µM) was 79.2% and the viability, T/C (second compound 0.00316 µM, first compound 0.1 µM) was 57.5%. It also gave a viability, T/C (second compound 0.01 µM, first compound 0.000316 µM) of 85.6%, a viability, T/C (second compound 0.01 µM, first compound 0.001 µM) of 89.5% and a viability, T/C (second compound 0.01 µM, first compound 0.00316 µM) of 89%. It also gave a viability, T/C (second compound 0.01 µM, first compound 0.01 µM) of 84.5%, a viability, T/C (second compound 0.01 µM, first compound 0.0316 µM) of 72.8% and a viability, T/C (second compound 0.01 µM, first compound 0.1 µM) of 53%. It also gave a viability, T/C (second compound 0.0316 µM, first compound 0.000316 µM) of 85.9%, a viability, T/C (second compound 0.0316 µM, first compound 0.001 µM) of 93.6% and a viability, T/C (second compound 0.0316 µM, first compound 0.00316 µM) of 71.2%. For the same compound, the viability, T/C (second compound 0.0316 µM, first compound 0.01 µM) was 64.4%, the viability, T/C [1] was 72.6% and the viability, T/C [2] was 50.3%. For the same compound, the viability, T/C (second compound 0.1 µM, first compound 0.000316 µM) was 67.9%, the viability, T/C (second compound 0.1 µM, first compound 0.001 µM) was 71.8% and the viability, T/C (second compound 0.1 µM, first compound 0.00316 µM) was 68.7%. It also gave a viability, T/C (second compound 0.1 µM, first compound 0.01 µM) of 59.5%, a viability, T/C [3] of 54.3% and a viability, T/C [4] of 42.1%. For the same compound, the viability, T/C (second compound 0.316 µM, first compound 0.000316 µM) was 52.8%, the viability, T/C (second compound 0.316 µM, first compound 0.001 µM) was 58.1% and the viability, T/C (second compound 0.316 µM, first compound 0.00316 µM) was 57.6%. The viability, T/C (second compound 0.316 µM, first compound 0.01 µM) was 44%, the viability, T/C [5] was 41% and the viability, T/C [6] was 30.8%. It also gave a viability, T/C (second compound 1 µM, first compound 0.000316 µM) of 50.6%, a viability, T/C (second compound 1 µM, first compound 0.001 µM) of 45.4% and a viability, T/C (second compound 1 µM, first compound 0.00316 µM) of 50.1%. The viability, T/C (second compound 1 µM, first compound 0.01 µM) was 36%, the viability, T/C [7] was 31.9% and the viability, T/C [8] was 27.2%.
